Results taken from patent US6841661B2, “Glycopeptide antibacterial compounds, compositions containing same and methods of using same” (Princeton Univerisity, priority 1999, dated 2005).

Assays:
[1] = test system: E. faecium CL 4931 (VanA); experiment: microbe, parasite or virus in culture; type: cell-based; set-up: CL4931 (in vitro testing): unit not given here; conditions: Tables 7 and 8; unit not given
Text: (§1) National Committee for Clinical Laboratory Standards (NCCLS) guidelines [Methods for Dilution Antimicrobial Susceptibility Tests for Bacteria that Grow Aerobically-Fourth Edition; Approved Standard (NCCLS Document M7-A4, January 1997)] are used to establish the assay, although variations are made to optimize the published method according to the specific needs of the present investigation.
(§2) The test panel currently includes eight enterococci and 13 staphylococci, which are selected based upon their antibiotic susceptibility profiles. The methicillin-sensitive Staphylococcus aureus (MSSA) strain MB2985 (Smith isolate) is used to assesses the potential for serum protein binding of the compounds. The paired Gram-negative strains ASP #49 (envA-) and ASP #50 (envA+) (M. Salvatore/N. Lee) are included to judge membrane effects. Table 3 presents a detailed description of the strains included in the panel, including some of the sources of the strains of bacteria.
(§3) The glycopeptide antibiotic teicoplanin is included whenever possible.
(§4) TSB, containing 10% HS* for vancomycin intermediate S. aurcus/methicillin-resistant S. aureus (VISA/MRSA) strains, is inoculated from an appropriate source (frozen broth or agar slant) and grown approximately 17 hr at 35° C. with shaking at 220 rpm. Cultures are grown in tubes with a volume of 5 ml for enterococci and 2 ml for all other strains.
(§5) Four milliliter (4 ml) overnight culture is added to 36 ml physiological saline to obtain tenfold dilutions (enterococci). Overnight culture (0.4 ml) is added to 39.6 ml saline to obtain 100-fold dilutions (all strains except enterococci). Diluted cultures are maintained on ice until time of inoculation of test plates.
(§6) The number of CFU/mL is determined on BHI agar plates, although this is not done routinely because titers of overnight cultures are relatively constant. The test media include: • BHI for enterococci and VISA/MRSA; • MH II (i.e., cation-adjusted Mueller-Hinton broth) for MRS, MSS and E. coli.; • MH II+HSA for MSSA is prepared as follows: • a. 2×MHII+86mg/ml HSA • b. Dissolve 4.3 g HSA in 50 ml autoclaved 2x MH II. • c. pH to 7.0 by adding 2M MOPS, sodium. • d. Filter sterilize using 0.22 μm Coming cellulose acetate filter, used because of reported low protein binding. • e. 1×MH II+43 mg/ml HSA • f. Dilute the 2×medium twofold and filter as above. 5.8.6. Preparation of Test Plates
(§7) Using a Denley liquid handling system (or similar automatic device), 100 μ1×medium is added to each well in columns 2-12 of a 96-well microtiter dish. Using a multichannel pipettor, 100 μl 2×medium is added to each well in column 1. Plates may be filled on the day prior to assay, wrapped in plastic bags and refrigerated.
(§8) Vancomycin, Schering 29482, and teicoplanin are prepared on a weight per volume basis using 10 mM 3-(N-morpholino)propane-sulfonic acid (MOPS) buffer pH 7. Test compounds are received in solution in appropriate solvent (typically as 1 mg/ml in DMSO) or are dissolved in appropriate solvent prior to further dilution in 10 mM MOPS buffer, ph7. Consistent with NCCLS guidelines, antibiotics are handled aseptically but are not otherwise sterilized.
(§9) 100 μl appropriately diluted antibiotic solution is added to the first well of the designated row of the 96-well microtiter dish and serially diluted by twofold across the row using the Denley liquid handling system. With the aid of a Dynatech NEC 2000 inoculator, each well of the microtiter dish is inoculated with 1.5 μl diluted overnight culture, yielding approximately 1-5×10^6 CFU/ml for enterococci and approximately 3-7×10^5 CFU/ml for all other strains. Dishes are placed in stacks of no more than five, wrapped in plastic bags and incubated at 35° C. • Indication of result(s) type (% INH, IC50, Zone size, etc.) • MIC=minimum inhibitory concentration ps 5.8.9. Interpretation of the Results on the Basis of Activity […]

[2] = test system: E. faecium CL 5053 (VanA); experiment: microbe, parasite or virus in culture; type: cell-based; set-up: CL5053 (in vitro testing): unit not given here; conditions: Tables 7 and 8; unit not given
Text: as §1, §2, §3, §4, §5, §6, §7, §8, §9

[3] = test system: E. faecium CL 5242 (VanA); experiment: microbe, parasite or virus in culture; type: cell-based; set-up: CL5242 (in vitro testing): unit not given here; conditions: Tables 7 and 8; unit not given
Text: as §1, §2, §3, §4, §5, §6, §7, §8, §9

[4] = test system: E. faecalis CL 4877 (VanB); experiment: microbe, parasite or virus in culture; type: cell-based; set-up: CL4877 (in vitro testing): unit not given here; conditions: Tables 7 and 8; unit not given
Text: as §1, §2, §3, §4, §5, §6, §7, §8, §9

[5] = test system: CL 4931, CL 5053, CL 5242 and CL 4877; type: cell-based, E. faecium, E. faecalis; set-up: unit not given here; conditions: mean of CL4931, CL5053, CL5242, CL4877; unit not given
Text: as §1, §2, §3, §4, §5, §6, §7, §8, §9

Row | Compound | CL4931 (in vitro testing) [1] | CL5053 (in vitro testing) [2] | CL5242 (in vitro testing) [3] | CL4877 (in vitro testing) [4] | Mean [5]
1 | CNC(CC(C)C)C(=O)NC1C(=O)NC(CC(N)=O)C(=O)NC2C(=O)NC3C(=O)NC(C(=O)NC(C(=O)O)c4cc(O)cc(O)c4-c4cc3ccc4O)C(O)c3ccc(c(Cl)c3)Oc3cc2cc(c3OC2OC(CNCCCN)C(O)C(O)C2OC2CC(C)(NCc3ccc(OCc4ccc(Cl)c(Cl)c4)cc3)C(O)C(C)O2)Oc2ccc(cc2Cl)C1O (centres unmarked) [Compound 161] | 16 | 16 | 4 | 16 | 13.0
2 | CNC(CC(C)C)C(=O)NC1C(=O)NC(CC(N)=O)C(=O)NC2C(=O)NC3C(=O)NC(C(=O)NC(C(=O)O)c4cc(O)cc(O)c4-c4cc3ccc4O)C(O)c3ccc(c(Cl)c3)Oc3cc2cc(c3OC2OC(CN3CCCC3)C(O)C(O)C2OC2CC(C)(NCc3ccc(OCc4ccc(Cl)c(Cl)c4)cc3)C(O)C(C)O2)Oc2ccc(cc2Cl)C1O (centres unmarked) [Compound 163] | 16 | 32 | 4 | 2 | 13.5
3 | CNC(CC(C)C)C(=O)NC1C(=O)NC(CC(N)=O)C(=O)NC2C(=O)NC3C(=O)NC(C(=O)NC(C(=O)O)c4cc(O)cc(O)c4-c4cc3ccc4O)C(O)c3ccc(c(Cl)c3)Oc3cc2cc(c3OC2OC(CNC3CC3)C(O)C(O)C2OC2CC(C)(NCc3ccc(OCc4ccc(Cl)c(Cl)c4)cc3)C(O)C(C)O2)Oc2ccc(cc2Cl)C1O (centres unmarked) [Compound 165] | 16 | 16 | 8 | 16 | 14.0
4 | CNC(CC(C)C)C(=O)NC1C(=O)NC(CC(N)=O)C(=O)NC2C(=O)NC3C(=O)NC(C(=O)NC(C(=O)O)c4cc(O)cc(O)c4-c4cc3ccc4O)C(O)c3ccc(c(Cl)c3)Oc3cc2cc(c3OC2OC(CN3CCC(N(C)C)C3)C(O)C(O)C2OC2CC(C)(NCc3ccc(OCc4ccc(Cl)c(Cl)c4)cc3)C(O)C(C)O2)Oc2ccc(cc2Cl)C1O (centres unmarked) [Compound 166] | 8 | 16 | 2 | 32 | 14.5
5 | CNC(CC(C)C)C(=O)NC1C(=O)NC(CC(N)=O)C(=O)NC2C(=O)NC3C(=O)NC(C(=O)NC(C(=O)O)c4cc(O)cc(O)c4-c4cc3ccc4O)C(O)c3ccc(c(Cl)c3)Oc3cc2cc(c3OC2OC(CN3CCNCC3)C(O)C(O)C2OC2CC(C)(NCc3ccc(OCc4ccc(Cl)c(Cl)c4)cc3)C(O)C(C)O2)Oc2ccc(cc2Cl)C1O (centres unmarked) [Compound 167] | 8 | 16 | 4 | 32 | 15.0
6 | CNC(CC(C)C)C(=O)NC1C(=O)NC(CC(N)=O)C(=O)NC2C(=O)NC3C(=O)NC(C(=O)NC(C(=O)O)c4cc(O)cc(O)c4-c4cc3ccc4O)C(O)c3ccc(c(Cl)c3)Oc3cc2cc(c3OC2OC(CN3CCCCC3)C(O)C(O)C2OC2CC(C)(NCc3ccc(OCc4ccc(Cl)c(Cl)c4)cc3)C(O)C(C)O2)Oc2ccc(cc2Cl)C1O (centres unmarked) [Compound 168] | 32 | 16 | 8 | 1 | 18.3
7 | CNC(CC(C)C)C(=O)NC1C(=O)NC(CC(N)=O)C(=O)NC2C(=O)NC3C(=O)NC(C(=O)NC(C(=O)O)c4cc(O)cc(O)c4-c4cc3ccc4O)C(O)c3ccc(c(Cl)c3)Oc3cc2cc(c3OC2OC(CN3CCOCC3)C(O)C(O)C2OC2CC(C)(NCc3ccc(OCc4ccc(Cl)c(Cl)c4)cc3)C(O)C(C)O2)Oc2ccc(cc2Cl)C1O (centres unmarked) [Compound 169] | 32 | 32 | 8 | 1 | 18.3
